PubChem BioAssay AID328 (DTP/NCI, 2004)
“And” between values parts separate entries of the source, which are not always exact repeats. Equal entries are not always repeated. Toxic doses and inconclusive results are not listed. How the source made its calls: active means survival T/C of 150% or more; inactive means T/C below 125% in these data.

Tested on: BDF1 mice, P388 leukemia ip, median survival T/C
Test: NCI In Vivo Anticancer Drug Screen. Data for tumor model P388 Leukemia (intraperitoneal) in B6D2F1 (BDF1) mice
Details: endpoint: median survival time, higher = longer survival
How it was run: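 Read-out is survival of treated animals expressed relative to the vehicle group, as a T/C ratio.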

[1] = dose: 100.0 mg/kg/injection, schedule: Q04DX003 (ip), vehicle: Klucel (hydroxypropylcellulose) (HPC)
[2] = dose: 200.0 mg/kg/injection, schedule: Q04DX003 (ip), vehicle: Klucel (hydroxypropylcellulose) (HPC)
[3] = dose: 400.0 mg/kg/injection, schedule: Q04DX003 (ip), vehicle: Klucel (hydroxypropylcellulose) (HPC)

Measured: T/C

CC(=O)OC1CCC2(C)C(CCC3(C)C2CCC2C4C5OC(=O)C4(CCC5(C)C)CCC23C)C1(C)C (centres undefined)
inactive: dose: 10.0 mg/kg/injection, schedule: Q01DX009 (ip), vehicle: Klucel (hydroxypropylcellulose) (HPC) 105 % of control | dose: 20.0 mg/kg/injection, schedule: Q01DX009 (ip), vehicle: Klucel (hydroxypropylcellulose) (HPC) 114 % of control | dose: 40.0 mg/kg/injection, schedule: Q01DX009 (ip), vehicle: Klucel (hydroxypropylcellulose) (HPC) 110 % of control

Cc1ccc(S(=O)(=O)N=S2CCCC2)cc1
inactive: [1] 100 % of control | [2] 95 % of control | [3] 100 % of control

O=c1[nH]cc(Br)c2sccc12
inactive: dose: 150.0 mg/kg/injection, schedule: Q01DX009 (ip), vehicle: saline 90 % of control | dose: 225.0 mg/kg/injection, schedule: Q01DX009 (ip), vehicle: saline 86 % of control

Clc1ncc(Br)c(Cl)n1
inactive: dose: 2.7 mg/kg/injection, schedule: Q01DX009 (ip), vehicle: Klucel (hydroxypropylcellulose) (HPC) 95 % of control | dose: 4.1 mg/kg/injection, schedule: Q01DX009 (ip), vehicle: Klucel (hydroxypropylcellulose) (HPC) 95 % of control | dose: 8.2 mg/kg/injection, schedule: Q01DX009 (ip), vehicle: Klucel (hydroxypropylcellulose) (HPC) 109 % of control | dose: 8.3 mg/kg/injection, schedule: Q01DX009 (ip), vehicle: Klucel (hydroxypropylcellulose) (HPC) 100 % of control | dose: 12.5 mg/kg/injection, schedule: Q01DX009 (ip), vehicle: Klucel (hydroxypropylcellulose) (HPC) 100 % of control and 109 % of control | dose: 13.75 mg/kg/injection, schedule: Q04DX003 (ip), vehicle: Klucel (hydroxypropylcellulose) (HPC) 104 % of control | dose: 18.0 mg/kg/injection, schedule: Q01DX009 (ip), vehicle: Klucel (hydroxypropylcellulose) (HPC) 100 % of control | dose: 18.75 mg/kg/injection, schedule: Q01DX009 (ip), vehicle: Klucel (hydroxypropylcellulose) (HPC) 115 % of control | dose: 27.5 mg/kg/injection, schedule: Q04DX003 (ip), vehicle: Klucel (hydroxypropylcellulose) (HPC) 100 % of control | dose: 55.0 mg/kg/injection, schedule: Q04DX003 (ip), vehicle: Klucel (hydroxypropylcellulose) (HPC) 108 % of control | dose: 80.0 mg/kg/injection, schedule: Q04DX003 (ip), vehicle: Klucel (hydroxypropylcellulose) (HPC) 108 % of control | dose: 125.0 mg/kg/injection, schedule: Q04DX003 (ip), vehicle: Klucel (hydroxypropylcellulose) (HPC) 100 % of control

[Cl][Ni][Cl].[NH-]CCN1CC1.[NH-]CCN1CC1
inactive: dose: 6.25 mg/kg/injection, schedule: Q01DX001 (ip), vehicle: saline 100 % of control | dose: 12.5 mg/kg/injection, schedule: Q01DX001 (ip), vehicle: saline 100 % of control | dose: 25.0 mg/kg/injection, schedule: Q01DX001 (ip), vehicle: saline 100 % of control

CC(C)n1c2c([n+](C)c1/C=C/c1ccccc1)C(=O)c1ccccc1C2=O
inactive: dose: 0.5 mg/kg/injection, schedule: Q01DX010 (ip), vehicle: saline 109 % of control | dose: 1.0 mg/kg/injection, schedule: Q01DX009 (ip), vehicle: Klucel (hydroxypropylcellulose) (HPC) 105 % of control | dose: 2.0 mg/kg/injection, schedule: Q01DX010 (ip), vehicle: saline 122 % of control

COc1ccc(OC)c(C(=O)CCCC(=O)O)c1
inactive: dose: 100.0 mg/kg/injection, schedule: Q01DX001 (ip), vehicle: Klucel (hydroxypropylcellulose) (HPC) 100 % of control | dose: 100.0 mg/kg/injection, schedule: Q01DX009 (ip), vehicle: Klucel (hydroxypropylcellulose) (HPC) 90 % of control | [1] 100 % of control | dose: 200.0 mg/kg/injection, schedule: Q01DX001 (ip), vehicle: Klucel (hydroxypropylcellulose) (HPC) 104 % of control | dose: 200.0 mg/kg/injection, schedule: Q01DX009 (ip), vehicle: Klucel (hydroxypropylcellulose) (HPC) 90 % of control | [2] 91 % of control | dose: 400.0 mg/kg/injection, schedule: Q01DX001 (ip), vehicle: Klucel (hydroxypropylcellulose) (HPC) 95 % of control | dose: 400.0 mg/kg/injection, schedule: Q01DX009 (ip), vehicle: Klucel (hydroxypropylcellulose) (HPC) 95 % of control | [3] 87 % of control

OCC1C2CCC(C2)C1CO (centres undefined)
inactive: dose: 12.5 mg/kg/injection, schedule: Q01DX009 (ip), vehicle: saline 105 % of control | dose: 25.0 mg/kg/injection, schedule: Q01DX009 (ip), vehicle: saline 110 % of control | dose: 50.0 mg/kg/injection, schedule: Q01DX009 (ip), vehicle: saline 115 % of control | dose: 75.0 mg/kg/injection, schedule: Q01DX009 (ip), vehicle: saline 115 % of control | dose: 115.0 mg/kg/injection, schedule: Q01DX009 (ip), vehicle: saline 95 % of control

O=C1OC2C(I)C3CCC2C1C3 (centres undefined)
inactive: dose: 100.0 mg/kg/injection, schedule: Q01DX009 (ip), vehicle: saline 105 % of control | dose: 100.0 mg/kg/injection, schedule: Q04DX003 (ip), vehicle: saline 121 % of control | dose: 200.0 mg/kg/injection, schedule: Q01DX009 (ip), vehicle: saline 115 % of control | dose: 200.0 mg/kg/injection, schedule: Q04DX003 (ip), vehicle: saline 95 % of control | dose: 400.0 mg/kg/injection, schedule: Q04DX003 (ip), vehicle: saline 95 % of control

O=C1c2ccccc2C(=O)c2cc3c(cc21)CCCC3
inactive: dose: 50.0 mg/kg/injection, schedule: Q01DX009 (ip), vehicle: water 94 % of control | dose: 100.0 mg/kg/injection, schedule: Q01DX009 (ip), vehicle: water 87 % of control | dose: 400.0 mg/kg/injection, schedule: Q01DX009 (ip), vehicle: water 96 % of control | dose: 800.0 mg/kg/injection, schedule: Q01DX009 (ip), vehicle: water 107 % of control
